A word on the IC50: it is the concentration that gives 50% inhibition.

The source of these data is patent US9388189B2, “Pyrrolotriazinone derivatives as PI3K inhibitors” (ALMIRALL, S.A., priority 2012, dated 2016).

The assay deals with PI3Kδ (PI3Kd) (Homo sapiens (Human), UniProt O00329). The assay can be described thus: PI3K HTRF enzymatic inhibition assay (cell-free), delta isoform. Conditions: read-out: IC50 PI3Kd HTRF; recombinant PI3K delta, [ATP] 15 μM, [PIP2] 2 μM, 30 min preincubation.
Sequence of PI3Kδ (PI3Kd) (O00329 whole entry, canonical isoform): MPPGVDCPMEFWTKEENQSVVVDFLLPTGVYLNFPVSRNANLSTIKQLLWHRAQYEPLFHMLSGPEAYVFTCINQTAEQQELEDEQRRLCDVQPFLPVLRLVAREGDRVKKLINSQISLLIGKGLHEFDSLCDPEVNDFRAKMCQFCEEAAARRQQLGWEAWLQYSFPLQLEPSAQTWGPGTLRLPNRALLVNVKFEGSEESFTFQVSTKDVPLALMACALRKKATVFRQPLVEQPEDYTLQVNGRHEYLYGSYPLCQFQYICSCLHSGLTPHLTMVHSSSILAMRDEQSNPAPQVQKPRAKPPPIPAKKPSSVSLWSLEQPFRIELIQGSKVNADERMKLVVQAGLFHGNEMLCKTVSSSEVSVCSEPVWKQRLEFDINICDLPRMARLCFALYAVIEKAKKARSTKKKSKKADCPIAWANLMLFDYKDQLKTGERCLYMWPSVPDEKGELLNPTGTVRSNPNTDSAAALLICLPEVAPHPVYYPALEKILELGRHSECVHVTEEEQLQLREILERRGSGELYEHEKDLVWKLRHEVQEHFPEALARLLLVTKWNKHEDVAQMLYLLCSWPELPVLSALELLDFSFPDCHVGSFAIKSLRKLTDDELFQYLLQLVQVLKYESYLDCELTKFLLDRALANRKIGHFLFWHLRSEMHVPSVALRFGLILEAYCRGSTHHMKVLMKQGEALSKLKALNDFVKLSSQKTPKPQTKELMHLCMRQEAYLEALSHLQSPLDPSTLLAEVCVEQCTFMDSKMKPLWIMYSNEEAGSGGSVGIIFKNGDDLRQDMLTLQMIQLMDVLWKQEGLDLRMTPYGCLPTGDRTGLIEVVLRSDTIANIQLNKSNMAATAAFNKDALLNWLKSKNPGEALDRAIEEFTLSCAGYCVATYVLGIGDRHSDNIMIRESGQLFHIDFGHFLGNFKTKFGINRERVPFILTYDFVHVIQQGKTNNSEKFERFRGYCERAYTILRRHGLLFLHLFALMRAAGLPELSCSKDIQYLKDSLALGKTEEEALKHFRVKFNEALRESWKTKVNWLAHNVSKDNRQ
Sequence of PI3Kδ (PI3Kd) (P27986 whole entry partner, canonical isoform): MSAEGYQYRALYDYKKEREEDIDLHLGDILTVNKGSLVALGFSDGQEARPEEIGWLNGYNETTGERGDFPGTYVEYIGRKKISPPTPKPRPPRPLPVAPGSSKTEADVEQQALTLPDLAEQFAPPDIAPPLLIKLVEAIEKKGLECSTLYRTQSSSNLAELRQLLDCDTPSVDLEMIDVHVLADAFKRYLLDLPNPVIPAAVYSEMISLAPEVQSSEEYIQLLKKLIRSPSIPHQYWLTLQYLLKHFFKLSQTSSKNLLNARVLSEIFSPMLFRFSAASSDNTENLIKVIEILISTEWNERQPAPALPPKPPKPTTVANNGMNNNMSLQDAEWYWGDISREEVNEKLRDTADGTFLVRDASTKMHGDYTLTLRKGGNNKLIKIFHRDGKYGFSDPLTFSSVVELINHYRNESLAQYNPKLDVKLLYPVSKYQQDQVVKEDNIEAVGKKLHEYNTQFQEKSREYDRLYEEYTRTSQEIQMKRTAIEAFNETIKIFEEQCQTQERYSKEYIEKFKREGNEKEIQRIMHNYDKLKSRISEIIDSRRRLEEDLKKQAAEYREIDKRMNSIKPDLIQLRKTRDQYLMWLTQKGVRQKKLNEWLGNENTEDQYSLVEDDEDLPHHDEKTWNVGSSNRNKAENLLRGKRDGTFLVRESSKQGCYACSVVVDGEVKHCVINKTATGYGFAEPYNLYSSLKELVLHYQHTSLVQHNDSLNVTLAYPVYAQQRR
Excerpt: Compounds were screened for their ability to inhibit PI3Kα (PI3Ka), PI3Kβ (PI3Kb), PI3Kδ (PI3Kd) and PI3Kγ (PI3Kg) using a cell-free based PI3K HTRF™ assay (Millipore, ref. #33-017).
PI-3 Kinase HTRF kit (ref. #33-037) and the different PI3K recombinant isoforms (ref. #14-602, ref. #14-603, ref. #14-604, ref. #15-558 for Alpha, Beta, Delta and Gamma respectively) were purchased at Millipore (expressed in insect cells). ATP was purchased at Sigma Aldrich (ref. #A7699).
The compounds were pre-incubated with the enzyme for 30 min before starting of the catalytic reaction. [PIP2] was used at its Km. […] Time of assay and [Enzyme] were optimized to work in the linear range. Stop and Detection mixtures were used as specified in the Millipore PI-3 Kinase kit.
Reaction time and enzyme concentration in the assay will depend of each batch.
All experiments were analysed using Activity Base software from IDBS and the four-parameter log equation.
For `Cc1ccn2nc([C@H](C)Nc3ncnc4[nH]cc(Sc5ccc(O)cc5)c34)n(-c3ccccc3)c(=O)c12` [Example 97, (S)-2-(1-((5-((4-Hydroxyphenyl)thio)-7H-pyrrolo[2,3-d]pyrimidin-4-yl)amino)ethyl)-5-methyl-3-phenylpyrrolo[2,1-f][1,2,4]triazin-4(3H)-one], the half-maximal inhibitory concentration (IC50) is 2 nM.

Take `Cc1ccn2nc([C@H](C)Nc3ncnc4[nH]cc(-c5cccc(Cl)c5O)c34)n(-c3ccccc3)c(=O)c12` [Example 104, (S)-2-(1-((5-(3-Chloro-2-hydroxyphenyl)-7H-pyrrolo[2,3-d]pyrimidin-4-yl)amino)ethyl)-5-methyl-3-phenylpyrrolo[2,1-f][1,2,4]triazin-4(3H)-one]: the 50% inhibitory concentration (IC50) is 1 nM.

In the case of `Cc1ccn2nc([C@H](C)Nc3ncnc(N)c3-c3cccc(NS(=O)(=O)c4ccc(O)cc4)c3)n(-c3ccccc3)c(=O)c12` [Example 106, (S)—N-(3-(4-Amino-6-((1-(5-methyl-4-oxo-3-phenyl-3,4-dihydropyrrolo[2,1-f][1,2,4]triazin-2-yl)ethyl)amino)pyrimidin-5-yl)phenyl)-4-hydroxybenzenesulfonamide], the IC50 stood at 0.4 nM.

Regarding `Cc1ccn2nc([C@H](C)Nc3ncnc4[nH]cc(-c5cnn(CCN(C)C)c5)c34)n(-c3ccccc3)c(=O)c12` [Example 107, (S)-2-(1-((5-(1-(2-(Dimethylamino)ethyl)-1H-pyrazol-4-yl)-7H-pyrrolo[2,3-d]pyrimidin-4-yl)amino)ethyl)-5-methyl-3-phenylpyrrolo[2,1-f][1,2,4]triazin-4(3H)-one], the half-inhibitory concentration (IC50) came out at 2 nM.

As to `Cc1ccn2nc([C@H](C)Nc3ncnc(N)c3-c3cncc(C(F)(F)F)c3)n(-c3ccccc3)c(=O)c12` [Example 114, (S)-2-(1-((6-Amino-5-(5-(trifluoromethyl)pyridin-3-yl)pyrimidin-4-yl)amino)ethyl)-5-methyl-3-phenylpyrrolo[2,1-f][1,2,4]triazin-4(3H)-one], the 50% inhibitory concentration (IC50) was found to be 0.5 nM.

On to `Cc1ccn2nc([C@H](C)Nc3ncnc(N)c3-c3cnn(CCO)c3)n(-c3ccccc3)c(=O)c12` [Example 116, (S)-2-(1-((6-Amino-5-(1-(2-hydroxyethyl)-1H-pyrazol-4-yl)pyrimidin-4-yl)amino)ethyl)-5-methyl-3-phenylpyrrolo[2,1-f][1,2,4]triazin-4(3H)-one], for which the IC50 is 1 nM.

`Cc1ccn2nc([C@H](C)Nc3ncnc(N)c3C(=O)N3CC[C@H](O)C3)n(-c3ccccc3)c(=O)c12` [Example 119, 3-((S)-1-((6-Amino-5-((S)-3-hydroxypyrrolidine-1-carbonyl)pyrimidin-4-yl)amino)ethyl)-8-methyl-2-phenylpyrrolo[2,1-f][1,2,4]triazin-1 (2H)-one]: the 50% inhibitory concentration (IC50) came to 156 nM.

With `CCNc1nnc(-c2c[nH]c3ncnc(N[C@@H](C)c4nn5ccc(C)c5c(=O)n4-c4ccccc4)c23)s1` [Example 120, (S)-2-(1-((5-(5-(Ethylamino)-1,3,4-thiadiazol-2-yl)-7H-pyrrolo[2,3-d]pyrimidin-4-yl)amino)ethyl)-5-methyl-3-phenylpyrrolo[2,1-f][1,2,4]triazin-4(3H)-one], the IC50 stood at 0.4 nM.

For `Cc1ccn2nc([C@H](C)Nc3ncnc4[nH]cc(-c5cc(O)cc(NS(=O)(=O)c6ccc(O)cc6)c5)c34)n(-c3ccccc3)c(=O)c12` [Example 125, (S)-4-Hydroxy-N-(3-hydroxy-5-(4-((1-(5-methyl-4-oxo-3-phenyl-3,4-dihydropyrrolo[2,1-f][1,2,4]triazin-2-yl)ethyl)amino)-7H-pyrrolo[2,3-d]pyrimidin-5-yl)phenyl)benzenesulfonamide], the IC50 was found to be 0.7 nM.

On to `Cc1ccn2nc([C@H](C)Nc3ncnc(N)c3-c3cncc(OC(F)F)c3)n(-c3ccccc3)c(=O)c12` [Example 127, (S)-2-(1-((6-Amino-5-(5-(difluoromethoxy)pyridin-3-yl)pyrimidin-4-yl)amino)ethyl)-5-methyl-3-phenylpyrrolo[2,1-f][1,2,4]triazin-4(3H)-one], for which the half-inhibitory concentration (IC50) came to 0.4 nM.

On to `CC(C)N1CCN(C(=O)CCCC#Cc2ccn3nc([C@H](C)Nc4ncnc(N)c4C#N)n(-c4ccccc4)c(=O)c23)CC1` [Example 128, (S)-4-Amino-6-((1-(5-(6-(4-isopropylpiperazin-1-yl)-6-oxohex-1-yn-1-yl)-4-oxo-3-phenyl-3,4-dihydropyrrolo[2,1-f][1,2,4]triazin-2-yl)ethyl)amino)pyrimidine-5-carbonitrile], for which the IC50 was found to be 4 nM.

Regarding `Cc1ccn2nc([C@H](C)Nc3ncnc(N)c3-c3cc(O)cc(NS(=O)(=O)c4ccc(F)cc4F)c3)n(-c3ccccc3)c(=O)c12` [Example 130, (S)—N-(3-(4-Amino-6-((1-(5-methyl-4-oxo-3-phenyl-3,4-dihydropyrrolo[2,1-f][1,2,4]triazin-2-yl)ethyl)amino)pyrimidin-5-yl)-5-hydroxyphenyl)-2,4-difluorobenzenesulfonamide], the concentration for half-maximal inhibition (IC50) turned out to be 1 nM.

Regarding `Cc1ccn2nc([C@H](C)Nc3ncnc(N)c3-c3cncc(OCC(F)(F)F)c3)n(-c3ccccc3)c(=O)c12` [Example 132, (S)-2-(1-((6-Amino-5-(5-(2,2,2-trifluoroethoxyl)pyridin-3-yl)pyrimidin-4-yl)amino)ethyl)-5-methyl-3-phenylpyrrolo[2,1-f][1,2,4]triazin-4(3H)-one], the IC50 amounted to 2 nM.

On to `COc1cc(-c2c(N)ncnc2N[C@@H](C)c2nn3ccc(C)c3c(=O)n2-c2ccccc2)cc(C(F)(F)F)n1` [Example 137, (S)-2-(1-((6-Amino-5-(2-methoxy-6-(trifluoromethyl)pyridin-4-yl)pyrimidin-4-yl)amino)ethyl)-5-methyl-3-phenylpyrrolo[2,1-f][1,2,4]triazin-4(3H)-one], for which the 50% inhibitory concentration (IC50) was found to be 4 nM.

For `Cc1ccn2nc([C@H](C)Nc3ncnc4[nH]cc(-c5cnc6[nH]ccc6c5)c34)n(-c3ccccc3)c(=O)c12` [Example 139, (S)-2-(1-((5-(1H-Pyrrolo[2,3-b]pyridin-5-yl)-7H-pyrrolo[2,3-d]pyrimidin-4-yl)amino)ethyl)-5-methyl-3-phenylpyrrolo[2,1-f][1,2,4]triazin-4(3H)-one], the half-inhibitory concentration (IC50) was 0.2 nM.

`Cc1ccn2nc([C@H](C)Nc3ncnc4[nH]cc(-c5cnn(CCCO)c5)c34)n(-c3ccccc3)c(=O)c12` [Example 140, (S)-2-(1-((5-(1-(3-Hydroxypropyl)-1H-pyrazol-4-yl)-7H-pyrrolo[2,3-d]pyrimidin-4-yl)amino)ethyl)-5-methyl-3-phenylpyrrolo[2,1-f][1,2,4]triazin-4(3H)-one]: the IC50 came to 0.2 nM.

`Cc1ccn2nc([C@H](C)Nc3ncnc4[nH]cc(-c5ccn(CCN6CCOCC6)n5)c34)n(-c3ccccc3)c(=O)c12` [Example 144, (S)-5-Methyl-2-(1-((5-(1-(2-morpholinoethyl)-1H-pyrazol-3-yl)-7H-pyrrolo[2,3-d]pyrimidin-4-yl)amino)ethyl)-3-phenylpyrrolo[2,1-f][1,2,4]triazin-4(3H)-one]: the IC50 is 2 nM.

Consider `Cc1ccn2nc([C@H](C)Nc3ncnc4[nH]cc(-c5ccn(CC(F)(F)F)n5)c34)n(-c3ccccc3)c(=O)c12` [Example 145, (S)-5-Methyl-3-phenyl-2-(1-((5-(1-(2,2,2-trifluoroethyl)-1H-pyrazol-3-yl)-7H-pyrrolo[2,3-d]pyrimidin-4-yl)amino)ethyl)pyrrolo[2,1-f][1,2,4]triazin-4(3H)-one], for which the IC50 was determined as 0.2 nM.
